Results from publication PMC12615385, “A combined chemo-enzymatic treatment for the oxidation of epoxy-based carbon fiber-reinforced polymers (CFRPs)” (Frontiers in Bioengineering and Biotechnology, 2025).

Legend:
Conditions in all cases: 0.1 M acetate buffer pH 4, 25 °C, 30 min
[1] = test system: ItL-02
[2] = test system: ItL-03
[3] = test system: ItL-01
[4] = substrate: CCn1c(=NN=c2sc3cc(S(=O)(=O)O)ccc3n2CC)sc2cc(S(=O)(=O)O)ccc21; test: purified protein; format: biochemical, Escherichia coli

| Km [1] [mM] | Km [2] [mM] | Km [3] [mM] | Molecule | Km [4] [mM] | kcat [4] [s⁻¹] |
| --- | --- | --- | --- | --- | --- |
| 3.64 ± 0.26 | 7.76 | 4.5 ± 1.42 | CCn1c(=NN=c2sc3cc(S(=O)(=O)O)ccc3n2CC)sc2cc(S(=O)(=O)O)ccc21 [ABTS, 2,2′-azino-bis(3-ethylbenzothiazoline-6-sulfonic acid)] |  |  |
|  |  |  | CueO (Escherichia coli K-12) (protein, codon-optimised synthetic gene in pET21a(+), E. coli T7 Shuffle, Ni-NTA purified; 50-60 kDa) AERPTLPIPDLLTTDARNRIQLTIGAGQSTFGGKTATTWGYNGNLLGPAVKLQRGKAVTVDIYNQLTEETTLHWHGLEVPGEVDGGPQGIIPPGGKRSVTLNVDQPAATCWFHPHQHGKTGRQVAMGLAGLVVIEDDEILKLMLPKQWGIDDVPVIVQDKKFSADGQIDYQLDVMTAAVGWFGDTLLTNGAIYPQHAAPRGWLRLRLLNGCNARSLNFATSDNRPLYVIASDGGLLPEPVKVSELPVLMGERFEVLVEVNDNKPFDLVTLPVSQMGMAIAPFDKPHPVMRIQPIAISASGALPDTLSSLPALPSLEGLTVRKLQLSMDPMLDMMGMQMLMEKYGDQAMAGMDHSQMMGHMGHGNMNHMNHGGKFDFHHANKINGQAFDMNKPMFAAAKGQYERWVISGVGDMMLHPFHIHGTQFRILSENGKPPAAHRAGWKDTVKVEGNVSEVLVKFNHDAPKEHAYMAHCHLLEHEDTGMMLGFTV | 2.39 ± 0.23 | 0.0045 ± 0.0005 |
